Measurements: patent publication US9796724B2, “Substituted pyrazolo[1,5-a]pyrimidine compounds as Trk kinase inhibitors” (Array BioPharma, Inc., priority 2009, dated 2017)

Columns and labels:
Human Jak2 kinase domain = Human Jak2 kinase domain (Homo sapiens (Human), UniProt O60674); assay: Jak2 inhibition assay (Omnia kinase assay); type: biochemical; conditions: Table 1; >1000 nM when >50% inhibition not observed at 1000 nM; read-out: Jak2 Enzyme IC50
Source text: The assays described in Examples C, D, E and F for the determination of JAK1, JAK2, JAK3 and Tyk2 kinase activity, respectively, utilized the Omnia® Kinase fluorescence peptide substrate-based technology (Invitrogen). The specific components of the assay mixture are described in Examples C, D and E. […] Two-μL aliquots of these were transferred to a fresh plate for a ten-fold intermediate dilution with assay buffer. […] Human Jak2 kinase domain comprising amino acids 808-1132 was purchased from Invitrogen Corporation, Carlsbad, Calif.

[1] = target: TrkA (histidine-tagged recombinant human TrkA, cytoplasmic domain) (Homo sapiens (Human), UniProt P04629); assay: TrkA ELISA assay; type: biochemical; conditions: Table 1, 500 μM ATP, read-out: TrkA Enzyme IC50
Method: An enzyme-linked immunosorbant assay (ELISA) was used to assess TrkA kinase activity in the presence of inhibitors. Immulon 4HBX 384-well microtiter plates (Thermo part #8755) were coated with a 0.025 mg/mL solution of poly (Glu, Ala, Tyr; 6:3:1; Sigma P3899). […] The assay buffer consisted of 25 mM MOPS pH 7.5, 0.005% (v/v) Triton X-100 and 5 mM MgCl2. The reaction mixture was removed from the plate by washing with PBS containing 0.1% (v/v) Tween 20. The phosphorylated reaction product was detected using 0.2 μg/mL of a phosphotyrosine specific monoclonal antibody (clone PY20) conjugated to horseradish peroxidase in conjunction with the TMB Peroxidase Substrate System (KPL). After the addition of 1M phosphoric acid, the chromogenic substrate color intensity was quantitated via absorbance at 450 nm.

Sequence of TrkA (histidine-tagged recombinant human TrkA, cytoplasmic domain) (P04629 440-796): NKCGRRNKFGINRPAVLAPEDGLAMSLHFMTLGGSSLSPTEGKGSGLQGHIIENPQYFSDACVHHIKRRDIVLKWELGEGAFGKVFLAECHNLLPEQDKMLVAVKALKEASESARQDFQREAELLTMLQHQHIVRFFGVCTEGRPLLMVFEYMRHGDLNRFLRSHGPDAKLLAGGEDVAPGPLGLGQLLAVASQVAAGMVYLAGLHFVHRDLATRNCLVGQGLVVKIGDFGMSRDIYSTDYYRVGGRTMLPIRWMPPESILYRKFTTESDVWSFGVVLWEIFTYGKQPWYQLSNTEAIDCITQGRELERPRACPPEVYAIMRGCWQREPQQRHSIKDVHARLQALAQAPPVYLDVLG
Sequence of Human Jak2 kinase domain (O60674 808-1132): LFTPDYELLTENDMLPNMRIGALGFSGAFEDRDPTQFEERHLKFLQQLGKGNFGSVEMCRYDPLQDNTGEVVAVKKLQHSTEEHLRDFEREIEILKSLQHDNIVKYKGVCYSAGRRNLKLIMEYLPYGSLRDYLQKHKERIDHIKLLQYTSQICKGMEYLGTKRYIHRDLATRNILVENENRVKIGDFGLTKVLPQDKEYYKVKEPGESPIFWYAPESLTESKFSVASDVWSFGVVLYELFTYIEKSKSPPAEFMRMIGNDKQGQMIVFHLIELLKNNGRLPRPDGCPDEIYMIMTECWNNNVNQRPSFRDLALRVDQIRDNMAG

IC50 (Human Jak2 kinase domain)	IC50 [1]	Compound
> 1 µM	0.0272 µM	C[C@H](O)[C@@H](CO)NC(=O)c1cnn2ccc(N3CCC[C@@H]3c3cc(F)ccc3F)nc12 [Example 176, 5-((R)-2-(2,5-difluorophenyl)pyrrolidin-1-yl)-N-((2R,3S)-1,3-dihydroxybutan-2-yl)pyrazolo[1,5-a]pyrimidine-3-carboxamide]
> 1 µM	0.0122 µM	C[C@H](O)[C@H](CO)NC(=O)c1cnn2ccc(N3CCC[C@@H]3c3cc(F)ccc3F)nc12 [Example 175, 5-((R)-2-(2,5-difluorophenyl)pyrrolidin-1-yl)-N-((2S,3S)-1,3-dihydroxybutan-2-yl)pyrazolo[1,5-a]pyrimidine-3-carboxamide]
	0.0116 µM	O=C(NCCN1CCC(O)CC1)c1cnn2ccc(N3CCC[C@@H]3c3cc(F)ccc3F)nc12 [Example 170, 5-((R)-2-(2,5-difluorophenyl)pyrrolidin-1-yl)-N-(2-(4-hydroxypiperidin-1-yl)ethyl)pyrazolo[1,5-a]pyrimidine-3-carboxamide]
> 1 µM	0.0163 µM	C[C@@H](O)[C@H](CO)NC(=O)c1cnn2ccc(N3CCC[C@@H]3c3cc(F)ccc3F)nc12 [Example 174, 5-((R)-2-(2,5-difluorophenyl)pyrrolidin-1-yl)-N-((2S,3R)-1,3-dihydroxybutan-2-yl)pyrazolo[1,5-a]pyrimidine-3-carboxamide]
